Data from the NIST ThermoML archive (doi:10.1016/j.jct.2004.11.009).

Assay: xn = mol fraction of the nth substance listed
Conditions: 101.33 kPa, Liquid

Cc1cccnc1 [3-methylpyridine] + O
Conditions	mass density [kg/m3]	viscosity [mPa·s]
293.15 K, x1 = 0.0101	998	1.149
293.15 K, x1 = 0.0211	997.8	1.301
293.15 K, x1 = 0.033	997.5	1.467
293.15 K, x1 = 0.0462	997.2	1.626
293.15 K, x1 = 0.114	995.4	2.301
293.15 K, x1 = 0.225	992.1	2.914
293.15 K, x1 = 0.36	986.9	3.04
293.15 K, x1 = 0.436	983.1	2.9
293.15 K, x1 = 0.5	979.7	2.733
293.15 K, x1 = 0.6	974.3	2.386
293.15 K, x1 = 0.7	969	2.021
293.15 K, x1 = 0.8	964.1	1.655
293.15 K, x1 = 0.9	959.8	1.31
293.15 K, x1 = 1	956	0.9459
303.15 K, x1 = 0.0101	995.1	0.913
303.15 K, x1 = 0.0211	994.4	1.021
303.15 K, x1 = 0.033	993.7	1.133
303.15 K, x1 = 0.0462	992.9	1.255
303.15 K, x1 = 0.114	989.3	1.705
303.15 K, x1 = 0.225	984	2.022
303.15 K, x1 = 0.36	977.8	2.034
303.15 K, x1 = 0.436	973.6	1.938
303.15 K, x1 = 0.5	970.2	1.83
303.15 K, x1 = 0.6	964.5	1.638
303.15 K, x1 = 0.7	959.4	1.449
303.15 K, x1 = 0.8	954.6	1.255
303.15 K, x1 = 0.9	950.3	1.049
303.15 K, x1 = 1	946.6	0.8318
313.15 K, x1 = 0.0101	991.2	0.731
313.15 K, x1 = 0.0211	990.2	0.8139
313.15 K, x1 = 0.033	989.2	0.8959
313.15 K, x1 = 0.0462	988	0.98
313.15 K, x1 = 0.114	982.9	1.307
313.15 K, x1 = 0.225	976.4	1.572
313.15 K, x1 = 0.36	968.9	1.588
313.15 K, x1 = 0.436	964.7	1.511
313.15 K, x1 = 0.5	961	1.43
313.15 K, x1 = 0.6	955.3	1.286
313.15 K, x1 = 0.7	950.2	1.149
313.15 K, x1 = 0.8	945.5	1.018
313.15 K, x1 = 0.9	941.3	0.884
313.15 K, x1 = 1	937.7	0.7352
323.15 K, x1 = 0.0101	986.6	0.6101
323.15 K, x1 = 0.0211	985.2	0.6693
323.15 K, x1 = 0.033	983.7	0.7356
323.15 K, x1 = 0.0462	982.3	0.7921
323.15 K, x1 = 0.114	975.6	1.048
323.15 K, x1 = 0.225	967.7	1.23
323.15 K, x1 = 0.36	959.4	1.255
323.15 K, x1 = 0.436	954.9	1.207
323.15 K, x1 = 0.5	951.2	1.162
323.15 K, x1 = 0.6	945.5	1.071
323.15 K, x1 = 0.7	940.5	0.9777
323.15 K, x1 = 0.8	935.9	0.8686
323.15 K, x1 = 0.9	931.8	0.7536
323.15 K, x1 = 1	928.3	0.6565
333.15 K, x1 = 0.0101	981.4	0.5203
333.15 K, x1 = 0.0211	979.6	0.5735
333.15 K, x1 = 0.033	977.7	0.6346
333.15 K, x1 = 0.0462	975.8	0.6624
333.15 K, x1 = 0.114	967.9	0.866
333.15 K, x1 = 0.225	958.7	1.015
333.15 K, x1 = 0.36	950	1.042
333.15 K, x1 = 0.436	945.4	1.004
333.15 K, x1 = 0.5	941.8	0.9701
333.15 K, x1 = 0.6	936.1	0.8988
333.15 K, x1 = 0.7	931.1	0.8305
333.15 K, x1 = 0.8	926.7	0.7562
333.15 K, x1 = 0.9	922.7	0.6699
333.15 K, x1 = 1	919.3	0.5936
343.15 K, x1 = 0.0101	975.8	0.4504
343.15 K, x1 = 0.0211	973.7	0.4888
343.15 K, x1 = 0.033	971.7	0.5355
343.15 K, x1 = 0.0462	969.4	0.5782
343.15 K, x1 = 0.114	960.5	0.7454
343.15 K, x1 = 0.225	950.2	0.8494
343.15 K, x1 = 0.36	940.4	0.8766
343.15 K, x1 = 0.436	936	0.8557
343.15 K, x1 = 0.5	932.3	0.8315
343.15 K, x1 = 0.6	926.8	0.786
343.15 K, x1 = 0.7	921.8	0.7335
343.15 K, x1 = 0.8	917.4	0.673
343.15 K, x1 = 0.9	913.6	0.6135
343.15 K, x1 = 1	910.3	0.539
